Here are results for 12 molecules from PubChem BioAssay (NCI).

Test systems include CCRF-CEM leukemia; HCT-116 colon; LOX IMVI melanoma; NCI-H460 lung; NCI-H522 lung; OVCAR-8 ovarian; PC-3 prostate; SF-539 CNS; SK-MEL-28 melanoma; SR leukemia.
Holding throughout (test): DTP human tumour cell line panel, 48 h

Structures are written as SMILES.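 These data come from cells grown in 96-well plates and exposed to compound for 48 hours at five concentrations. GI50 is the concentration that inhibits growth by half. TGI denotes the concentration required for complete inhibition of growth.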 A value given as a limit tells only on which side of the number the result lay.

As usually defined, the GI50 is the concentration at which growth is held to half of that of the control. Usually TGI stands for the concentration at which net growth stops.

`CN1CSC(=S)N(Cc2ccccc2)C1`: the GI50 in the test with CCRF-CEM leukemia is 18 µM; with HCT-116 colon it was 4.49 µM; in the test with LOX IMVI melanoma it was 2.75 µM; in the test with NCI-H460 lung it was 15.3 µM; with NCI-H522 lung, 1.89 µM; in the test with OVCAR-8 ovarian, 25.2 µM. The GI50 in the test on PC-3 prostate is 42.4 µM; with SF-539 CNS it was 4.46 µM; with SK-MEL-28 melanoma, 18.4 µM; in the test on SR leukemia, 2.11 µM. Moreover, the TGI is above 100 µM in the test on CCRF-CEM leukemia; 15.6 µM in the test with HCT-116 colon; 11.6 µM in the test on LOX IMVI melanoma; 36.8 µM in the test with NCI-H460 lung; 5.65 µM in the test with NCI-H522 lung; above 100 µM in the test with OVCAR-8 ovarian. Moreover, the TGI with PC-3 prostate was above 100 µM; with SF-539 CNS, 21.3 µM; with SK-MEL-28 melanoma, 41 µM; in the test on SR leukemia, above 100 µM.
On to `N#CC1c2ccccc2C=CN1C(=O)N(c1ccccc1)c1ccccc1` (stereo not given), for which the GI50 with CCRF-CEM leukemia was 2.97 µM; with HCT-116 colon, 2.05 µM; in the test on LOX IMVI melanoma, 2.04 µM; with NCI-H460 lung, 15.9 µM; in the test on NCI-H522 lung it was 1.78 µM; in the test with OVCAR-8 ovarian, 13.3 µM. Moreover, the GI50 was 9.82 µM with PC-3 prostate, 4.69 µM in the test with SF-539 CNS, 2.43 µM in the test with SK-MEL-28 melanoma and 2.14 µM in the test on SR leukemia. Moreover, the TGI with CCRF-CEM leukemia came to 8.99 µM; with HCT-116 colon, 4.35 µM; in the test with LOX IMVI melanoma, 4.61 µM; in the test on NCI-H460 lung it was 34.2 µM; in the test with NCI-H522 lung it was 3.33 µM; in the test with OVCAR-8 ovarian, 54.1 µM. The TGI was found to be 25.3 µM in the test on PC-3 prostate, 17.9 µM in the test on SF-539 CNS, 5.84 µM in the test with SK-MEL-28 melanoma and 6.32 µM in the test with SR leukemia.
Turning to `O=c1[nH]cnc2c1nnn2CCCCCCCCCCCCn1nnc2c(=O)[nH]cnc21`, the TGI in the test with CCRF-CEM leukemia is above 100 µM; with HCT-116 colon it was above 84.1 µM; in the test with LOX IMVI melanoma, above 100 µM; in the test on NCI-H460 lung, above 100 µM; with NCI-H522 lung, 63 µM; with OVCAR-8 ovarian, above 86.8 µM. Also, the TGI in the test with PC-3 prostate was above 100 µM; with SF-539 CNS, 54.6 µM; with SK-MEL-28 melanoma it was above 100 µM; in the test on SR leukemia, above 100 µM.
In the case of `Cn1cc(C2=C(c3cn(CCCCCSC(=N)N)c4ccccc34)C(=O)NC2=O)c2ccccc21`, the GI50 in the test with CCRF-CEM leukemia is 1.93 µM; with HCT-116 colon, 1.08 µM; in the test with LOX IMVI melanoma, 2.92 µM; with NCI-H460 lung, 3.73 µM; in the test with NCI-H522 lung, 1.92 µM; in the test on OVCAR-8 ovarian, 3.61 µM. For the same molecule, the GI50 was 2.68 µM in the test on PC-3 prostate, 3.51 µM in the test with SF-539 CNS, 3.55 µM in the test on SK-MEL-28 melanoma and 0.79 µM with SR leukemia. Moreover, the TGI with CCRF-CEM leukemia worked out at 5.87 µM; in the test on HCT-116 colon, 4.53 µM; with LOX IMVI melanoma, 6.48 µM; with NCI-H460 lung, 7.75 µM; in the test with NCI-H522 lung it was 5.59 µM; in the test with OVCAR-8 ovarian, 10.4 µM. The concentration for total growth inhibition (TGI) was 6.02 µM in the test with PC-3 prostate, 6.77 µM with SF-539 CNS, 7.17 µM in the test with SK-MEL-28 melanoma and 2.24 µM in the test on SR leukemia.
On to `C=CC(=O)N1CC2(CC(n3nc(-c4ccc5c(cnn5C)c4)c(-c4c(Cl)c(C)cc5[nH]ncc45)c3C)C2)C1`, for which the GI50 in the test with CCRF-CEM leukemia is 2.67 µM; with HCT-116 colon it was 1.83 µM; with LOX IMVI melanoma, 1.69 µM; in the test with NCI-H460 lung, 3.12 µM; in the test with NCI-H522 lung, 2.09 µM; with OVCAR-8 ovarian it was 2.13 µM. For the same molecule, the GI50 with PC-3 prostate was 3.59 µM; in the test with SF-539 CNS it was 2.15 µM; in the test on SK-MEL-28 melanoma, 2.44 µM; in the test on SR leukemia it was 1.61 µM. Moreover, the total growth inhibition concentration (TGI) in the test with CCRF-CEM leukemia came to 14.8 µM; with HCT-116 colon, 3.74 µM; in the test with LOX IMVI melanoma, 3.55 µM; with NCI-H460 lung, 10.3 µM; in the test with NCI-H522 lung, 5.15 µM; in the test on OVCAR-8 ovarian it was 4.84 µM. Besides, the TGI in the test with PC-3 prostate amounted to 22.8 µM; in the test with SF-539 CNS, 5.17 µM; in the test on SK-MEL-28 melanoma, 5.44 µM; with SR leukemia, 6.12 µM.
Consider `O=C(Nc1nc2ccccc2s1)Nc1ccc([N+](=O)[O-])cc1Cl`, for which the GI50 with CCRF-CEM leukemia is 2.52 µM; with HCT-116 colon, 2.12 µM; in the test on LOX IMVI melanoma, 2.66 µM; in the test on NCI-H460 lung, 2.42 µM; in the test with NCI-H522 lung, 2.74 µM; in the test with OVCAR-8 ovarian, 2.13 µM. The GI50 in the test on PC-3 prostate was 4.26 µM; with SF-539 CNS, 1.69 µM; in the test on SK-MEL-28 melanoma, 6.25 µM; with SR leukemia, 3.31 µM. The total growth inhibition concentration (TGI) in the test with CCRF-CEM leukemia is above 49.4 µM; in the test on HCT-116 colon, 4.54 µM; in the test on LOX IMVI melanoma, 6.7 µM; in the test on NCI-H460 lung, 6.81 µM; in the test with NCI-H522 lung, 10.2 µM; with OVCAR-8 ovarian, 4.99 µM. In addition, the TGI in the test on PC-3 prostate is above 28.8 µM; in the test with SF-539 CNS, 3.11 µM; in the test on SK-MEL-28 melanoma, 20.1 µM; with SR leukemia, above 100 µM.
For `CC(=O)[O][Hg][c]1c(C)c(C)cc(C)c1C`, the GI50 in the test with CCRF-CEM leukemia was 0.39 µM; in the test on HCT-116 colon, 1.85 µM; in the test on LOX IMVI melanoma, 1.21 µM; with NCI-H460 lung it was 0.739 µM; in the test on NCI-H522 lung, 0.194 µM; with OVCAR-8 ovarian, 1.77 µM. For the same molecule, the GI50 in the test with PC-3 prostate is 1.73 µM; in the test with SF-539 CNS, 1.51 µM; in the test with SK-MEL-28 melanoma it was 1.5 µM; in the test on SR leukemia, 0.0629 µM. For the same molecule, the TGI in the test with CCRF-CEM leukemia amounted to 13.5 µM; in the test on HCT-116 colon it was 3.66 µM; in the test with LOX IMVI melanoma, 3.06 µM; in the test on NCI-H460 lung it was 3.09 µM; in the test on NCI-H522 lung, 0.486 µM; with OVCAR-8 ovarian, 3.23 µM. In addition, the TGI stood at 4.5 µM with PC-3 prostate, 3.11 µM in the test on SF-539 CNS, 3.02 µM with SK-MEL-28 melanoma and 2.21 µM in the test with SR leukemia.
For the molecule `COc1ccc(/C(C#N)=C2C=C/C(=N/O)c3ccccc3\2)cc1`, the GI50 was 0.254 µM with CCRF-CEM leukemia; 0.328 µM with HCT-116 colon; 0.382 µM in the test on LOX IMVI melanoma; 0.31 µM in the test on NCI-H460 lung; 0.0891 µM in the test with NCI-H522 lung; 0.327 µM with OVCAR-8 ovarian. Also, the GI50 is 0.322 µM in the test on PC-3 prostate, 0.2 µM in the test with SF-539 CNS, 1.22 µM in the test on SK-MEL-28 melanoma and 0.133 µM in the test on SR leukemia. The TGI in the test with CCRF-CEM leukemia was found to be 12.6 µM; in the test with HCT-116 colon, 11 µM; with LOX IMVI melanoma, 14.7 µM; with NCI-H460 lung it was 1.23 µM; in the test on NCI-H522 lung, 0.838 µM; with OVCAR-8 ovarian it was 13.1 µM. Moreover, the TGI in the test on PC-3 prostate was 15.7 µM; with SF-539 CNS, 0.67 µM; with SK-MEL-28 melanoma it was 20 µM; in the test on SR leukemia, 5.06 µM.
In the case of `CN(CC(=O)N(Cc1ccc(C2CCCCC2)cc1)c1ccc(C(=O)O)cc1)S(=O)(=O)c1c(F)c(F)c(F)c(F)c1F`, the GI50 in the test with CCRF-CEM leukemia was 2.69 µM; in the test with HCT-116 colon, 1.93 µM; in the test with LOX IMVI melanoma it was 1.61 µM; with NCI-H460 lung, 3.33 µM; with NCI-H522 lung, 1.77 µM; in the test on OVCAR-8 ovarian, 2.5 µM. Also, the GI50 in the test with PC-3 prostate is 2.08 µM; in the test with SF-539 CNS it was 1.69 µM; with SK-MEL-28 melanoma it was 1.62 µM; in the test on SR leukemia it was 2.64 µM. The TGI in the test with CCRF-CEM leukemia is 6.81 µM; in the test on HCT-116 colon it was 3.68 µM; with LOX IMVI melanoma, 3.03 µM; in the test on NCI-H460 lung, 10.4 µM; with NCI-H522 lung, 3.65 µM; in the test on OVCAR-8 ovarian, 5.79 µM. For the same molecule, the TGI in the test on PC-3 prostate was 3.96 µM; with SF-539 CNS, 3.26 µM; with SK-MEL-28 melanoma it was 3.03 µM; with SR leukemia, 7.89 µM.
With `Cc1cc(N2CCN(C)CC2)n2nc(-c3ccc(Cl)cc3)nc2n1`, the TGI with CCRF-CEM leukemia, in the test on HCT-116 colon, in the test on LOX IMVI melanoma, in the test on NCI-H460 lung, with NCI-H522 lung and in the test on OVCAR-8 ovarian was above 100 µM in each case. For the same molecule, the TGI in the test with PC-3 prostate, with SF-539 CNS, in the test with SK-MEL-28 melanoma and in the test with SR leukemia was above 100 µM throughout.
As for `CCc1nc(N)nc(N)c1-c1ccc(N2CCNCC2)cc1`, the TGI is above 86.7 µM in the test with CCRF-CEM leukemia; above 100 µM with HCT-116 colon; above 100 µM in the test with LOX IMVI melanoma; above 100 µM in the test on NCI-H460 lung; above 100 µM in the test with NCI-H522 lung; above 100 µM in the test with OVCAR-8 ovarian. The TGI in the test with PC-3 prostate was above 100 µM; in the test on SF-539 CNS, above 100 µM; in the test with SK-MEL-28 melanoma, above 100 µM; in the test with SR leukemia it was above 66.9 µM.
On to `CN(Cc1cnc2nc(N)nc(N)c2n1)c1ccc(C(=O)NC(CCC(=O)O)C(=O)O)cc1Br` (stereo not given), for which the 50% growth inhibitory concentration (GI50) with CCRF-CEM leukemia, in the test with HCT-116 colon, in the test with LOX IMVI melanoma, in the test with NCI-H460 lung, in the test on NCI-H522 lung and with OVCAR-8 ovarian was below 0.01 µM each time. The 50% growth inhibitory concentration (GI50) in the test with PC-3 prostate was below 0.01 µM; in the test on SF-539 CNS, below 0.01 µM; with SK-MEL-28 melanoma, 0.23 µM; in the test on SR leukemia it was below 0.01 µM. Moreover, the TGI in the test on CCRF-CEM leukemia was above 44.5 µM; in the test with HCT-116 colon, 2.42 µM; in the test on LOX IMVI melanoma, 2.1 µM; in the test with NCI-H460 lung, 4.9 µM; in the test on NCI-H522 lung, 31.2 µM; with OVCAR-8 ovarian it was above 100 µM. In addition, the concentration for total growth inhibition (TGI) was above 100 µM with PC-3 prostate, 8.44 µM in the test with SF-539 CNS, 19.5 µM in the test with SK-MEL-28 melanoma and 8.49 µM in the test with SR leukemia.
